Values of other authors as cited in patent US12644083B2, “Dual circulation microphysiological system” (CN Bio Innovations Limited, priority 2019, dated 2026).

Tested on: primary human hepatocytes
Details: for rate of metabolism (in words): general statement: considered to be slowly metabolised; for test phase required to give measurable changes (metabolism): single loop 3D liver scaffold system

| SMILES | rate of metabolism (in words) | test phase required to give measurable changes (metabolism) [days] |
| --- | --- | --- |
| CC(C)N(CCC(C(N)=O)(c1ccccc1)c1ccccn1)C(C)C (stereo not shown) [disopyramide] | slowly metabolised | 5 |
| CC(C)(C)NC[C@H](O)COc1nsnc1N1CCOCC1 [timolol] | slowly metabolised | 5 |
